# Where two headings read alike, the source gives them in different places.
# Legend:
# SR = assay: CCK-8 proliferation, SR; assay type: cell-based, Human; settings: Homo sapiens
# Method in brief: (§1)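 Tumor cells were cultured at 37°C with 5% CO2, seeded, and after 24h treated with compounds at 10 concentrations starting at 10µM (5-fold serial dilutions).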
# MV-4-11 = assay: CCK-8 proliferation, MV-4-11; assay type: cell-based, Human; settings: Homo sapiens, MV4-11
# Method in brief: as §1
# CCRF-CEM = assay: CCK-8 proliferation, CCRF-CEM; assay type: cell-based, Human; settings: Homo sapiens
# Method in brief: as §1
# SW620 = assay: CCK-8 proliferation, SW620; assay type: cell-based; settings: Homo sapiens, SW-620; CCK-8; 96 hours; read-out: Inhibitory activity (IC50) on tumor cell proliferation, SW620
# Method in brief: as §1
# H1975 = assay: CCK-8 proliferation, NCI-H1975 (H1975); assay type: cell-based, Human; settings: Homo sapiens, NCI-H1975; CCK-8; 96 hours; read-out: Inhibitory activity (IC50) on tumor cell proliferation, H1975
# Method in brief: as §1
# FAK = target: T1, FAK (Homo sapiens, UniProt Q05397); assay: Western blot degradation of FAK; assay type: cell-based; settings: Table D7
# T1 construct: evaluate the effects of the compounds of the present disclosure on the expression of target proteins in cells; endogenous in cells
# Method in brief: (§2)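 After compound exposure, cells were harvested and lysates run on SDS-PAGE, transferred to nitrocellulose and probed with antibodies. Remaining target (%) was computed from band grayscale relative to an internal control protein and normalised; degradation (%) was 100% minus that.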
# CAL-62 = assay: CCK-8 proliferation, CAL-62; assay type: cell-based; settings: Homo sapiens, 72 hours, read-out: Inhibitory activity (IC50) on tumor cell proliferation, CAL-62
# Procedure: (§3) The tumor cells used herein were cultured in a cell culture medium listed in table A1 at 37°C in an incubator with 5% CO2. Prior to experimentation, all cell lines used were correctly identified by STR profiling, and tested negative for mycoplasma contamination using a mycoplasma detection kit through routine screenings. Table A1. Tumor cells and cell culture medium used in the present disclosure
# (§4) IC50 values of the compounds of the present disclosure (including the compounds in Table 1, and compounds of examples) were measured using the Meilun Cell Counting Kit-8 kit from Dalian Meilun Biotech Co., Ltd. Assay details are as follows: tumor cells were seeded in a 96-well plate at a density listed in Table A2. After 24h, 100 µL of the inoculated cells were treated with 0.5µL of the compounds of the present disclosure (including the compounds in Tables 1 and 2, and compounds of examples) at 10 different successively decreasing concentrations (starting at the highest concentration of 10µM; 5-fold serial dilutions). After the cells were treated with the compounds of the present disclosure for a period of time, the cell viability detection reagent was added to the culture medium for cell viability assessment according to the instructions provided with the CCK-8 kit. […] The growth inhibition of the compounds of the present disclosure on cells was plotted by Prism Graphpad software, and the IC50 values of the compounds of the present disclosure were calculated therefrom. […] Seeding protocol and treatment time for tumor cells
# [1] = target: T2, human Cereblon WT GST-tagged protein (Homo sapiens, UniProt Q96SW2); assay: CRBN binding, HTRF (CEREBLON BINDING kit); settings: HTRF
# T2 construct: purchased CISBIO 64BDCRBNPEH
# Method in brief: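 Competitive HTRF: GST-tagged human WT Cereblon mixed with compound, Thalidomide-Re tracer and GST Eu antibody, incubated 3 h at room temperature. Signals read at 620 and 665 nm.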
# H1299 = assay: CCK-8 proliferation, H1299; set-up: species or system Human; settings: Homo sapiens, NCI-H1299; Table B10, compounds designed based on the IRAK4 inhibitors; H1299 cells; read-out: Inhibitory activity (IC50, nM) on tumor cell proliferation, H1299
# Procedure: as §3, §4
# MM.1S = assay: CCK-8 proliferation, MM.1S; assay type: cell-based; settings: Homo sapiens, MM1.S; Table B10, compounds designed based on the IRAK4 inhibitors; MM.1S cells; read-out: Inhibitory activity (IC50, nM) on tumor cell proliferation, MM.1S
# Method in brief: as §1
# LNcap = assay: CCK-8 proliferation, LNcap; assay type: cell-based; settings: Homo sapiens; Table B10, compounds designed based on the IRAK4 inhibitors; Lncap cells; read-out: Inhibitory activity (IC50, nM) on tumor cell proliferation, Lncap
# Procedure: as §3, §4
# MGC-803 = assay: CCK-8 proliferation, MGC-803 (heads: MGC80-3, MGC803); assay type: cell-based, Human; settings: Homo sapiens, MGC-803
# Method in brief: as §1
# Jurkat = assay: CCK-8 proliferation, Jurkat; assay type: cell-based, Human; settings: Homo sapiens; Table B10, compounds designed based on the IRAK4 inhibitors; Jurkat cells; read-out: Inhibitory activity (IC50, nM) on tumor cell proliferation, Jurkat
# Method in brief: as §1
# BXPC-3 = assay: CCK-8 proliferation, BXPC-3; assay type: cell-based; settings: Homo sapiens, 96 hours, read-out: Inhibitory activity (IC50) on tumor cell proliferation, BXPC-3
# Procedure: as §3, §4
# THP-1 = assay: CCK-8 proliferation, THP-1; assay type: cell-based; settings: Homo sapiens, 72 hours, read-out: Inhibitory activity (IC50) on tumor cell proliferation, THP-1
# Procedure: as §3, §4
# IRAK4 = target: T3, IRAK4 (Homo sapiens, UniProt Q9NWZ3); assay: Western blot degradation of IRAK4 (hPBMC); assay type: cell-based; settings: Table D1
# T3 construct: evaluate the effects of the compounds of the present disclosure on the expression of target proteins in cells; endogenous in cells; host or cells: hPBMC
# T3 sequence (Q9NWZ3 1-460): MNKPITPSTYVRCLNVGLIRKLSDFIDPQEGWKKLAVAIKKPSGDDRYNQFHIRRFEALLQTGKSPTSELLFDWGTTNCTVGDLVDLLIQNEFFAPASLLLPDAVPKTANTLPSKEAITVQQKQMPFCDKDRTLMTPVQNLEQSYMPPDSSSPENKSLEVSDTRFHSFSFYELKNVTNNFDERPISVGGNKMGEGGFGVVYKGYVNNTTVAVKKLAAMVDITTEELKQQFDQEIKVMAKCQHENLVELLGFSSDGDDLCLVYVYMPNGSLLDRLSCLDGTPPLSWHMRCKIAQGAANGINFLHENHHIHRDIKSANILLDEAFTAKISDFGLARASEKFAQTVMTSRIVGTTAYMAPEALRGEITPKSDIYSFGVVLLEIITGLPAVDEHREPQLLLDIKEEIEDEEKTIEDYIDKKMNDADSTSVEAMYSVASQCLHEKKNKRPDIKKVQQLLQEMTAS
# Method in brief: as §2
# [2] = CCRF-CEM, CCK-8, 96 hours, read-out: Inhibitory activity (IC50) on tumor cell proliferation, CCRF-CEM
# [3] = Table B10, compounds designed based on the IRAK4 inhibitors, SR cells, read-out: Inhibitory activity (IC50, nM) on tumor cell proliferation, SR
# [4] = Table B10, compounds designed based on the IRAK4 inhibitors, MGC803 cells, read-out: Inhibitory activity (IC50, nM) on tumor cell proliferation, MGC803
# [5] = CCK-8, 72 hours, read-out: Inhibitory activity (IC50) on tumor cell proliferation, MGC80-3
# T2 sequence (Q96SW2 whole entry): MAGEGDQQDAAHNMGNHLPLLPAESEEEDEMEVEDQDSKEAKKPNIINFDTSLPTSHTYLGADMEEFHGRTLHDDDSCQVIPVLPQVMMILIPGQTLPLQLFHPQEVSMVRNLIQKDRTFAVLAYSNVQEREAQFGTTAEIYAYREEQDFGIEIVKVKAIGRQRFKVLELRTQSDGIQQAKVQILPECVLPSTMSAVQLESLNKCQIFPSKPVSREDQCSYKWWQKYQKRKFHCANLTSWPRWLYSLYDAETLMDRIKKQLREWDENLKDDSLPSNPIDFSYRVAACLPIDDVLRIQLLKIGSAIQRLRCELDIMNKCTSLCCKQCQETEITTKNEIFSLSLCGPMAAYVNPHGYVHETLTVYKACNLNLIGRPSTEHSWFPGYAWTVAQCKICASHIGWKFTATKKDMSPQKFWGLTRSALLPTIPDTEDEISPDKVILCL
# T1 sequence (Q05397 whole entry, species assumed): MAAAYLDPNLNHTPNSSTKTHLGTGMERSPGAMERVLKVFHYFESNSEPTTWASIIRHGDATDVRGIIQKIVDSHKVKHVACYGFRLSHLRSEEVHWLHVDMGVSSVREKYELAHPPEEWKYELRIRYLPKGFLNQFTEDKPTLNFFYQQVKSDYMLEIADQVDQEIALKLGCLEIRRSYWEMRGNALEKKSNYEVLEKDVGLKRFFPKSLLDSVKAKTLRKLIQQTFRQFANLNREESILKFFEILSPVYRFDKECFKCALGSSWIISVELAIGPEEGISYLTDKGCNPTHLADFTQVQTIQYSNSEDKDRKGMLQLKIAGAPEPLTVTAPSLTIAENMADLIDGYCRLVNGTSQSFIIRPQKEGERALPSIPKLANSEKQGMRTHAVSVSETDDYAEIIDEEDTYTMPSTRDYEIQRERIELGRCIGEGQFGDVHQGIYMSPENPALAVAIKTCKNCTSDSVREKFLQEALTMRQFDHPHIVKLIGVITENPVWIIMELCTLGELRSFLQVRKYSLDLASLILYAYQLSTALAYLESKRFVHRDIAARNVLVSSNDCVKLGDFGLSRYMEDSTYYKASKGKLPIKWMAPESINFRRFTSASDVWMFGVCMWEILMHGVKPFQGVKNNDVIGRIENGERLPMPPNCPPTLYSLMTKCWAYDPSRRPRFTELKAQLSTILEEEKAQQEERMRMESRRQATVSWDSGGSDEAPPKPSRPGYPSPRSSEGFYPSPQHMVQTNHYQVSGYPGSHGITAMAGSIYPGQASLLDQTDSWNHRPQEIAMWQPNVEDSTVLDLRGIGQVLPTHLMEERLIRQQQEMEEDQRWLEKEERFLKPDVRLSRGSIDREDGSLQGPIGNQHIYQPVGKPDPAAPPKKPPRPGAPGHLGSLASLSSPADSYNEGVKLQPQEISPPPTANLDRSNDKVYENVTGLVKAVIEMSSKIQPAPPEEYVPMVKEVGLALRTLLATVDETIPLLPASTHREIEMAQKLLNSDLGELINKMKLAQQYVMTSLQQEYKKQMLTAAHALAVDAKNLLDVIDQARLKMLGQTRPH
SMILES,IC50 (CCRF-CEM; [2]) [nM],IC50 (SW620) [nM],IC50 (SR; [3]) [nM],IC50 (H1299) [nM],IC50 (MM.1S) [nM],IC50 (MGC-803; [4]) [nM],IC50 (Jurkat) [nM],IC50 (BXPC-3) [nM],further results
"CNC(=O)c1ccccc1Nc1cc(Nc2ccc(N3CCC(N(C)Cc4ccc(C5CCC(=O)NC5=O)c(F)c4)CC3)cc2OC)ncc1C(F)(F)F (stereo not drawn) [GT-03734, 2-((2-((4-(4-((4-(2,6-dioxopiperidin-3-yl)-3-fluorobenzyl)(methyl)amino)piperidin-1-yl)-2-methoxyphenyl)amino)-5-(trifluoromethyl)pyridin-4-yl)amino)-N-methylbenzamide]",100 to 500,100 to 500,–,–,–,–,–,–,"IC50 (SR; SR, CCK-8, 72 hours, read-out: Inhibitory activity (IC50) on tumor cell proliferation, SR): 50 to 100 nM; IC50 (MV-4-11; CCK-8, 72 or 96 hours, read-out: Inhibitory activity (IC50) on tumor cell proliferation, MV-4-11): 100 to 500 nM; IC50 (H1975): 100 to 500 nM; Degradation of substrate protein FAK (substrate protein remaining %) (FAK): A (A is defined as 0% ≤ substrate protein remaining % ≤ 80%); IC50 (CAL-62): 50 to 100 nM"
"CNC(=O)c1ccccc1Nc1cc(Nc2cc(C)c(N3CCC(N(C)Cc4ccc(C5CCC(=O)NC5=O)cc4)CC3)cc2OC(C)C)ncc1C(F)(F)F (stereo not drawn) [GT-04094, 2-((2-((4-(4-((4-(2,6-dioxopiperidin-3-yl)benzyl)(methyl)amino)piperidin-1-yl)-2-isopropoxy-5-methylphenyl)amino)-5-(trifluoromethyl)pyridin-4-yl)amino)-N-methylbenzamide]",500 to 1000,100 to 500,–,–,–,–,–,–,"inhibition at 0.5 µM ([1]; Table II-2, CRBN binding screening, at 0.5µM, read-out: Inhibition rate (%) at 0.5µM): 10 to 20%; inhibition at 2 µM ([1]; Table II-2, CRBN binding screening, at 2 µM, read-out: Inhibition rate (%) at 2 µM): 53 to 60%; Degradation of substrate protein FAK (substrate protein remaining %) (FAK): A (A is defined as 0% ≤ substrate protein remaining % ≤ 80%); IC50 (CAL-62): 500 to 1000 nM"
"O=C1CCC(c2ccc(CN3CCN(c4ccc(-n5cc(NC(=O)c6coc(-c7ccnc(NCC(F)(F)F)c7)n6)c(C(F)F)n5)cc4)CC3)cc2)C(=O)N1 (stereo not drawn) [GT-04273, N-(3-(difluoromethyl)-1-(4-(4-(4-(2,6-dioxopiperidin-3-yl)benzyl)piperazin-1-yl)phenyl)-1H-pyrazol-4-yl)-2-(2-((2,2,2-trifluoroethyl)amino)pyridin-4-yl)oxazole-4-carboxamide]",–,–,50 to 100,50 to 100,1 to 10,10 to 50,1 to 10,–,IC50 (LNcap): 100 to 500 nM
"Cc1ccc(-c2c(C)noc2C)cc1N(CC1CCN(Cc2ccc(C3CCC(=O)NC3=O)cc2)CC1)c1ccc(C2(C#N)CC2)cc1 (stereo not drawn) [GT-04839, 1-(4-((5-(3,5-dimethylisoxazol-4-yl)-2-methylphenyl)((1-(4-(2,6-dioxopiperidin-3-yl)benzyl)piperidin-4-yl)methyl)amino)phenyl)cyclopropane-1-carbonitrile]",500 to 1000,500 to 1000,–,–,–,–,–,50 to 100,IC50 (MGC-803; [5]): 500 to 1000 nM
"Cc1ccc(-c2c(C)noc2C)cc1N(CC1CCN(Cc2ccc(C3CCC(=O)NC3=O)c(F)c2)CC1)c1ccc(C2(C#N)CC2)cc1 (stereo not drawn) [GT-04840, 1-(4-((5-(3,5-dimethylisoxazol-4-yl)-2-methylphenyl)((1-(4-(2,6-dioxopiperidin-3-yl)-3-fluorobenzyl)piperidin-4-yl)methyl)amino)phenyl)cyclopropane-1-carbonitrile]",–,100 to 500,–,–,–,–,–,10 to 50,IC50 (MGC-803; [5]): 100 to 500 nM
"Cc1ccc(-c2c(C)noc2C)cc1N(CC1CCN(Cc2cccc(NC3CCC(=O)NC3=O)c2)CC1)c1ccc(C2(C#N)CC2)cc1 (stereo not drawn) [GT-04841, 1-(4-((5-(3,5-dimethylisoxazol-4-yl)-2-methylphenyl)((1-(3-((2,6-dioxopiperidin-3-yl)amino)benzyl)piperidin-4-yl)methyl)amino)phenyl)cyclopropane-1-carbonitrile]",–,–,–,–,–,–,–,100 to 500,IC50 (THP-1): 500 to 1000 nM
"Cc1ccc(-c2c(C)noc2C)cc1N(CC1CCN(Cc2cccc(N3CCC(=O)NC3=O)c2)CC1)c1ccc(C2(C#N)CC2)cc1 [GT-04842, 1-(4-((5-(3,5-dimethylisoxazol-4-yl)-2-methylphenyl)((1-(3-(2,4-dioxotetrahydropyrimidin-1(2H)-yl)benzyl)piperidin-4-yl)methyl)amino)phenyl)cyclopropane-1-carbonitrile]",–,–,–,–,–,–,–,500 to 1000,IC50 (THP-1): 500 to 1000 nM
"O=C1CCN(c2ccc(CN3CCN(c4ccc5c(c4)nc(NC(=O)c4cccc(C(F)(F)F)c4)n5[C@H]4CC[C@@H](CO)CC4)CC3)nc2)C(=O)N1 [GT-04986, N-(5-(4-((5-(2,4-dioxotetrahydropyrimidin-1(2H)-yl)pyridin-2-yl)methyl)piperazin-1-yl)-1-((1s,4s)-4-(hydroxymethyl)cyclohexyl) -1H-benzo[d]imidazol-2-yl)-3-(trifluoromethyl)benzamide]",–,–,100 to 500,100 to 500,100 to 500,100 to 500,100 to 500,–,Degradation of substrate protein IRAK4 (substrate protein remaining %) (IRAK4): A (A is defined as 0% ≤ substrate protein remaining % ≤ 80%)
"CC[C@@H]1[C@H](F)C(=O)N[C@@H]1COc1nccc2cc(C(N)=O)c(OC)cc12 [PF06650833, reference compound]",–,–,1000 to 5000,5000 to 10000,> 10000,5000 to 10000,> 10000,–,"IC50 (MV-4-11; Table B10, compounds designed based on the IRAK4 inhibitors, MV-4-11 cells, read-out: Inhibitory activity (IC50, nM) on tumor cell proliferation, MV-4-11): 1000 to 5000 nM; IC50 (CCRF-CEM; Table B10, compounds designed based on the IRAK4 inhibitors, CCRF-CEM cells, read-out: Inhibitory activity (IC50, nM) on tumor cell proliferation, CCRF-CEM): 5000 to 10000 nM; IC50 ([1]; Table II-1, CRBN binding): > 10 µM; IC50 (LNcap): > 10000 nM"

# Source: patent publication EP4678638A1, “NEW E3 UBIQUITIN LIGASE LIGAND, PROTEIN DEGRADATION AGENT AND USE THEREOF” (priority 2023, dated 2024)
